Read-outs that look alike come from different tables or passages of the source.
Key:
mucin content = conditions: previous study (19), cited from earlier work
[1] = system: mucin content in the airway epithelium; assay: Airway epithelial mucin content (PAFS staining, mucin volume density) in OVA sensitized and challenged mice; type: in vivo, BALB/c mice; conditions: for reduction in mucin content: high dose: dexamethasone 4 mg/kg/day
From the text: (§1) Six-week to eight-week-old BALB/c mice (Jackson Animal Laboratory, Bar Harbor, Me.) were housed under specific pathogen-free conditions.
(§2) Mice were immunized against allergen by means of sensitization (once weekly intraperitoneal injection on days 0, 7, and 14) and challenge (once daily intranasal instillation for 5 days on days 41-45) with ovalbumin (OVA) as described (FIG. 1) (19).
(§3) Untreated sensitized and challenged mice or mice that had not undergone the sensitization and challenge process, received vehicle and were fed with normal mouse chow. […] Experimental mice were sacrificed on day 46.
Lungs were perfused with 4% paraformaldehyde in PBS (pH 7.0) via a tracheal cannula at room temperature, then removed from the thoracic cavity and further fixed overnight at 4° C. (25). After overnight fixation, lungs were embedded in paraffin and then sectioned and stained with periodic acid fluorescent Schiff's (PAFS) reagent to examine intracellular mucin. Tissue sections were examined under a 40× objective and images (MagnaFire 2.1 Optronics) were acquired prior to any measurements and analyzed (ImagePro Plus) by blinded investigators (25).

[2] = system: airway hyperresponsiveness; conditions: mild asthmatics, dose escalation protocol; cited from earlier work
cytokines in BAL fluid = assay: Cytokines in BAL fluid of OVA sensitized and challenged mice (multiplex ELISA); type: in vivo, BALB/c mice; conditions: Dex 4.0 mg/kg/day, Nad 250 ppm, 24 h after last OVA challenge
From the text: as §1, §2, §3
The supernatants from brochoalveolar lavage samples, collected 24 hours after the last challenge with OVA, were provided to Pierce Searchlight, Aushon BioSystems, Inc. in blinded fashion. The concentrations of eotaxin, macrophage-derived chemokine (MDC), thymus and activation regulated chemokine (TARC), interleukin (IL)-1α, IL-5, IL-6, IL-12p70, IL-13, IL-17, IL-23, interferon (IFN), tumor necrosis factor alpha (TNF-a) and transforming growth factor beta (TGF-β1) were measured using multiplex enzyme-linked immunosorbent assay.
Definition of abbreviations in Table 1 are Th1/2/17=T helper (1, 2, or 17) type inflammation; MDC=macrophage-derived chemokine; TARC=thymus and activation regulated chemokine; IL=interleukin-1a, IL-5, IL-6, IL-12p70, IL-13, IL-17, IL-23; IFNγ=interferon gamma; TNFα=tumor necrosis factor alpha; TGFβ1=transforming growth factor betal. The percentage from No Rx is in comparison to No OVA for each cytokine, while percentage of each drug treatment group [Dex (4.0 mg/kg/day); Nad (250 ppm); and Dex+Nad (0.4 mg/kg/day+25 ppm)] is in comparison to No Rx. Values are the means±SEM of data from 4 mice in each group (n=4); and *, indicate significant difference compared to No Rx, P<0.05.

BAL eosinophils = assay: BAL eosinophil numbers in OVA sensitized and challenged mice; type: in vivo, BALB/c mice
From the text: as §1, §2, §3
Brochoalveolar lavage (BAL) fluid was acquired via infusion and recovery of cold PBS (2×1 ml) through the tracheal cannula from euthanized (pentobarbital 0.1 ml of 65 mg/ml) mice. Brochoalveolar lavage total leukocyte count and differentiated cell counts were performed as described (19).
Leukocytes and cytokines were measured in BAL fluid of OVA-sensitized mice 24 hours after the last of five daily nasal challenges with OVA (FIG. 1).

[3] = intermediate doses: dexamethasone 0.4 mg/kg/day IP 8 days, nadolol 25 ppm in chow 28 days, BAL 24 h after last OVA challenge
[4] = low doses: dexamethasone 0.1 mg/kg/day IP 8 days, nadolol 5 ppm in chow 28 days, BAL 24 h after last OVA challenge

| SMILES | reduction in mucin content ([1]; nadolol 250 ppm) [%] | IL-1a, percentage in comparison to No Rx (cytokines in BAL fluid) | IL-5, percentage in comparison to No Rx (cytokines in BAL fluid) | IL-6, percentage in comparison to No Rx (cytokines in BAL fluid) | IL-12p70, percentage in comparison to No Rx (cytokines in BAL fluid) | IL-13, percentage in comparison to No Rx (cytokines in BAL fluid) | IL-17, percentage in comparison to No Rx (cytokines in BAL fluid) | IL-23, percentage in comparison to No Rx (cytokines in BAL fluid) | MDC, percentage in comparison to No Rx (cytokines in BAL fluid) | TARC, percentage in comparison to No Rx (cytokines in BAL fluid) | TGFβ1, percentage in comparison to No Rx (cytokines in BAL fluid) | TNFa, percentage in comparison to No Rx (cytokines in BAL fluid) | eotaxin, percentage in comparison to No Rx (cytokines in BAL fluid) | IFNg level in BAL fluid (cytokines in BAL fluid; mean ± SEM, n=4) [pg/mL] | IL-1a level in BAL fluid (cytokines in BAL fluid; mean ± SEM, n=4) [pg/mL] | IL-5 level in BAL fluid (cytokines in BAL fluid; mean ± SEM, n=4) [pg/mL] | IL-6 level in BAL fluid (cytokines in BAL fluid; mean ± SEM, n=4) [pg/mL] | IL-12p70 level in BAL fluid (cytokines in BAL fluid; mean ± SEM, n=4) [pg/mL] | IL-13 level in BAL fluid (cytokines in BAL fluid; mean ± SEM, n=4) [pg/mL] | IL-17 level in BAL fluid (cytokines in BAL fluid; mean ± SEM, n=4) [pg/mL] | other results |
| --- | --- | --- | --- | --- | --- | --- | --- | --- | --- | --- | --- | --- | --- | --- | --- | --- | --- | --- | --- | --- | --- |
| CC(C)(C)NCC(O)COc1cccc2c1CC(O)C(O)C2 (stereo not shown) [nadolol] | 86 | (73%) | (56%)* | (88%) | (140%) | (13%)* | (50%) | (76%) | (27%)* | (19%)* | (45%)* | (53%)* | (80%) | 7 ± 1.1 | 11 ± 5.0 | 118 ± 33.0 | 21 ± 10.0 | 7 ± 1.0 | 6 ± 2.0 | 1 ± 0.2 | reduction in mucin content (mucin content; 7 days of treatment with nadolol): very modest reduction; reduction in mucin content (mucin content; 28 days of treatment with nadolol): ~90%; change in mucin content ([1]; all doses of chronic nadolol (5, 25, 250 ppm)): significant decreases; mucin volume density after 7 days of treatment vs vehicle treated control mice ([1]; nadolol 250 ppm, 7 days): significant reductions; day at which maximal effect on mucin volume density is achieved ([1]; nadolol 250 ppm, time course): 22 days; airway hyperresponsiveness [2]: reduction in airway hyperresponsiveness; IL-23 level in BAL fluid (cytokines in BAL fluid; mean ± SEM, n=4): 28 ± 4.3 pg/mL; TARC level in BAL fluid (cytokines in BAL fluid; mean ± SEM, n=4): 593 ± 223.5 pg/mL; TGFβ1 level in BAL fluid (cytokines in BAL fluid; mean ± SEM, n=4): 5891 ± 710 pg/mL; TNFa level in BAL fluid (cytokines in BAL fluid; mean ± SEM, n=4): 33 ± 8.0 pg/mL; eotaxin level in BAL fluid (cytokines in BAL fluid; mean ± SEM, n=4): 36 ± 6.0 pg/mL; reduction in eosinophils (BAL eosinophils; [3]): 36%; reduction in eosinophils (BAL eosinophils; [4]): 20%; maximal reductions in airway eosinophilia from OVA S/C (BAL eosinophils; nadolol 250 ppm, detected at day 7 of treatment): ~50% |
| C[C@@H]1C[C@H]2[C@@H]3CCC4=CC(=O)C=C[C@]4(C)[C@@]3(F)[C@@H](O)C[C@]2(C)[C@@]1(O)C(=O)CO [dexamethasone] | 72 | (233%)* | (30%)* | (163%) | (180%) | (27%)* | (0) % | (200%) | (5%)* | (15%)* | (35%)* | (23%)* | (27%)* | 90 ± 1.1 | 35 ± 7.1 | 63 ± 19.3 | 39 ± 28.2 | 9 ± 1.3 | 12 ± 5.0 | 2 ± 0.4 | IFNg, percentage in comparison to No Rx (cytokines in BAL fluid): (1500%); IL-23 level in BAL fluid (cytokines in BAL fluid; mean ± SEM, n=4): 74 ± 10.0 pg/mL; MDC level in BAL fluid (cytokines in BAL fluid; mean ± SEM, n=4): 10 ± 1.0 pg/mL; TARC level in BAL fluid (cytokines in BAL fluid; mean ± SEM, n=4): 475 ± 47.0 pg/mL; TGFβ1 level in BAL fluid (cytokines in BAL fluid; mean ± SEM, n=4): 4675 ± 792 pg/mL; TNFa level in BAL fluid (cytokines in BAL fluid; mean ± SEM, n=4): 14 ± 1.0 pg/mL; eotaxin level in BAL fluid (cytokines in BAL fluid; mean ± SEM, n=4): 12 ± 2.0 pg/mL; reduction in eosinophils (BAL eosinophils; high-dose dexamethasone 4.0 mg/kg/day IP 8 days): 89%; reduction in eosinophils (BAL eosinophils; [3]): 58%; reduction in eosinophils (BAL eosinophils; [4]): 36% |

From patent US9730889B2, “Steroid-sparing effects of beta-adrenergic inverse agonists and uses thereof” (University of Houston System, priority 2011, dated 2017)
